Data: article PMC6009879, “Open saccharin-based secondary sulfonamides as potent and selective inhibitors of cancer-related carbonic anhydrase IX and XII isoforms” (Journal of Enzyme Inhibition and Medicinal Chemistry, 2016)

Tests used:
Format in all cases: biochemical
[1] = target: T1, hCA XII (Homo sapiens, UniProt O43570); test: stopped-flow CO2 hydrase assay, hCA XII; details: recombinant hCA XII; mean from 3 different assays, errors ±5–10%
T1 construct: made in house
Protocol: (§1) An applied photophysics stopped-flow instrument has been used for assaying the CA-catalyzed CO2 hydration activity. Phenol red (0.2 mM) has been used as indicator, working at the absorbance maximum of 557 nm, with 20 mM Hepes (pH 7.5, for α-CAs) as buffer, and 20 mM NaClO4 (for maintaining constant the ionic strength), following the initial rates of the CA-catalyzed CO2 hydration reaction for a period of 10–100 s. The CO2 concentrations ranged from 1.7 to 17 mM for the determination of the kinetic parameters and inhibition constants. […] The uncatalyzed rates were determined in the same manner and subtracted from the total observed rates. Stock solutions of each inhibitor (1 µM) were prepared in distilled-deionized water and dilutions up to 0.1 nM were done thereafter with the assay buffer. […] The inhibition constants were obtained by non-linear least-squares methods using PRISM 3 and the Cheng–Prusoff equation, and represent the average from at least three different determinations. All recombinant CA isoforms were obtained in-house as previously reported[38]^,[39].

[2] = target: T2, hCA IX (Homo sapiens, UniProt Q16790); test: stopped-flow CO2 hydrase assay, hCA IX; details: recombinant hCA IX; mean from 3 different assays, errors ±5–10%
T2 construct: made in house
Protocol: as §1

[3] = target: T3, hCA II (Homo sapiens, UniProt P00918); test: stopped-flow CO2 hydrase assay, hCA II; details: recombinant hCA II; mean from 3 different assays, errors ±5–10%
T3 construct: made in house
Protocol: as §1

[4] = target: T4, hCA I (Homo sapiens, UniProt P00915); test: stopped-flow CO2 hydrase assay, hCA I; details: recombinant hCA I; mean from 3 different assays, errors ±5–10%
T4 construct: made in house
T4 sequence (P00915 whole entry): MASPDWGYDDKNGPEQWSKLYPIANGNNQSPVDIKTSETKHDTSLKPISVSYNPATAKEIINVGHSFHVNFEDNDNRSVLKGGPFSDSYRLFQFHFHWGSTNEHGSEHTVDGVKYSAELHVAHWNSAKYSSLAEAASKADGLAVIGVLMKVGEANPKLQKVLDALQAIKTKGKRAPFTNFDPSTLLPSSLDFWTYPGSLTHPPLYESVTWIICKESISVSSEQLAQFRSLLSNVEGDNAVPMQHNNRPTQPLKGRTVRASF
Protocol: as §1

T1 sequence (O43570 25-354): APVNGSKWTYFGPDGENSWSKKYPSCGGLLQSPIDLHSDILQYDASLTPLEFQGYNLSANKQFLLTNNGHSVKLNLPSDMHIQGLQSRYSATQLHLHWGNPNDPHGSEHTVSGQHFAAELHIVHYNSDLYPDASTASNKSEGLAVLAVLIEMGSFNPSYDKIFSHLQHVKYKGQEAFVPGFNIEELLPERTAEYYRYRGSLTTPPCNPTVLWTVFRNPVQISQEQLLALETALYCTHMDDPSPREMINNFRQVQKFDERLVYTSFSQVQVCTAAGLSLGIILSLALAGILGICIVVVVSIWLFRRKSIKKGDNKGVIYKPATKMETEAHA

| Structure (SMILES) | Ki [1] | Ki [2] | Ki [3] | Ki [4] |
| --- | --- | --- | --- | --- |
| O=S(=O)(NCc1ccccc1C(F)(F)F)c1ccccc1CO [Compound 2, 2-(Hydroxymethyl)-N-(2-(trifluoromethyl)benzyl)benzenesulfonamide] | 54 nM | 200 nM | > 10000 nM | > 10000 nM |
| O=[N+]([O-])c1ccccc1CNS(=O)(=O)c1ccccc1CO [Compound 3, 2-(Hydroxymethyl)-N-(2-nitrobenzyl)benzenesulfonamide] | 383 nM | 104 nM | > 10000 nM | > 10000 nM |
| O=S(=O)(NCc1ccccc1Br)c1ccccc1CO [Compound 4, N-(2-bromobenzyl)-2-(hydroxymethyl)benzenesulfonamide] | 323 nM | 113 nM | > 10000 nM | > 10000 nM |
| O=[N+]([O-])c1cccc(CNS(=O)(=O)c2ccccc2CO)c1 [Compound 7, 2-(Hydroxymethyl)-N-(3-nitrobenzyl)benzenesulfonamide] | 382 nM | 176 nM | > 10000 nM | > 10000 nM |
| O=S(=O)(NCc1cccc(F)c1)c1ccccc1CO [Compound 8, N-(3-fluorobenzyl)-2-(hydroxymethyl)benzenesulfonamide] | 247 nM | 268 nM | > 10000 nM | > 10000 nM |
| O=S(=O)(NCc1cccc(Br)c1)c1ccccc1CO [Compound 9, N-(3-bromobenzyl)-2-(hydroxymethyl)-benzenesulfonamide] | 64 nM | 267 nM | > 10000 nM | > 10000 nM |
| N#Cc1ccc(CNS(=O)(=O)c2ccccc2CO)cc1 [Compound 12, N-(4-cyanobenzyl)-2-(hydroxymethyl)benzenesulfonamide] | 57 nM | 126 nM | > 10000 nM | > 10000 nM |
| O=[N+]([O-])c1ccc(CNS(=O)(=O)c2ccccc2CO)cc1 [Compound 13, 2-(Hydroxymethyl)-N-(4-nitrobenzyl)benzenesulfonamide] | 54 nM | 20 nM | > 10000 nM | > 10000 nM |
| O=S(=O)(NCc1ccc(F)cc1)c1ccccc1CO [Compound 14, N-(4-fluorobenzyl)-2-(hydroxymethyl)benzenesulfonamide] | 63 nM | 26 nM | > 10000 nM | > 10000 nM |
| O=S(=O)(NCc1ccc(Cl)cc1)c1ccccc1CO [Compound 15, N-(4-chlorobenzyl)-2-(hydroxymethyl)benzenesulfonamide] | 48 nM | 154 nM | > 10000 nM | > 10000 nM |
| O=S(=O)(NCc1ccc(Br)cc1)c1ccccc1CO [Compound 16, N-(4-bromobenzyl)-2-(hydroxymethyl)benzenesulfonamide] | 432 nM | 145 nM | > 10000 nM | > 10000 nM |
| O=S(=O)(NCc1c(F)cccc1F)c1ccccc1CO [Compound 17, N-(2,6-difluorobenzyl)-2-(hydroxymethyl)benzenesulfonamide] | 45 nM | 296 nM | > 10000 nM | > 10000 nM |
| O=S(=O)(NCc1cccc2ccccc12)c1ccccc1CO [Compound 19, 2-(Hydroxymethyl)-N-(naphthalen-1-ylmethyl)benzenesulfonamide] | 345 nM | 294 nM | > 10000 nM | > 10000 nM |
| O=S(=O)(NCC(O)c1ccccc1)c1ccccc1CO (stereo not drawn) [Compound 20, N-(2-hydroxy-2-phenylethyl)-2-(hydroxymethyl)benzenesulfonamide] | 64 nM | 224 nM | > 10000 nM | > 10000 nM |
| COc1cccc(C(O)CNS(=O)(=O)c2ccccc2CO)c1 (stereo not drawn) [Compound 21, N-(2-hydroxy-2-(3-methoxyphenyl)ethyl)-2-(hydroxymethyl)benzenesulfonamide] | 355 nM | 31 nM | > 10000 nM | > 10000 nM |

The next molecules have a lower Ki [1] than those just listed; values first:

| Ki [1] | Ki [2] | Ki [3] | Ki [4] | Structure (SMILES) |
| --- | --- | --- | --- | --- |
| 4.6 nM | 218 nM | > 10000 nM | > 10000 nM | Cc1ccccc1CNS(=O)(=O)c1ccccc1CO [Compound 1, 2-(Hydroxymethyl)-N-(2-methylbenzyl)benzenesulfonamide] |
| 4.3 nM | 223 nM | > 10000 nM | > 10000 nM | Cc1cccc(CNS(=O)(=O)c2ccccc2CO)c1 [Compound 5, 2-(Hydroxymethyl)-N-(3-methylbenzyl)benzenesulfonamide] |
| 4.4 nM | 238 nM | > 10000 nM | > 10000 nM | O=S(=O)(NCc1cccc(C(F)(F)F)c1)c1ccccc1CO [Compound 6, 2-(Hydroxymethyl)-N-(3-(trifluoromethyl)benzyl)benzenesulfonamide] |
| 5.7 nM | 120 nM | > 10000 nM | > 10000 nM | Cc1ccc(CNS(=O)(=O)c2ccccc2CO)cc1 [Compound 10, 2-(Hydroxymethyl)-N-(4-methylbenzyl)benzenesulfonamide] |
| 7.2 nM | 253 nM | > 10000 nM | > 10000 nM | O=S(=O)(NCc1ccc(C(F)(F)F)cc1)c1ccccc1CO [Compound 11, 2-(Hydroxymethyl)-N-(4-(trifluoromethyl)benzyl)benzenesulfonamide] |
| 40 nM | 298 nM | > 10000 nM | > 10000 nM | O=S(=O)(NCc1ccc(Cl)c(Cl)c1)c1ccccc1CO [Compound 18, N-(3,4-dichlorobenzyl)-2-(hydroxymethyl)benzenesulfonamide] |
